Some test systems named below: SK-OV-3; SR; Malme-3M; 786-0; HT-29; HOP-18; SF-295; SNB-75; COLO 205; NCI-H23; M14; LOX IMVI; CAKI-1; OVCAR-5; SW-620; MDA-MB-231; T47D; DU-145; MCF7; PC-3.
Common to all, as to assay: NCI-60 cell line screen, 48 h

Molecules are shown by their SMILES.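 The compound was tested at five concentrations on cells cultured in 96-well plates, with a 48-hour exposure period. GI50 marks 50% less growth.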 Active and inactive are the calls of the source. No stated cut-off is given here; in the data, active = GI50 up to about 1.1 µM and inactive = higher.

Regarding `CCO/C=C/C(C)C1(C(=O)OCC)CCCCC1=O` (stereo not drawn), the GI50 with SK-OV-3 is > 100 µM (inactive); with SR, > 100 µM (inactive); in the experiment with Malme-3M, > 100 µM (inactive); in the experiment with 786-0, 56.8 µM (inactive); with HT-29, > 100 µM (inactive); in the experiment with HOP-18, > 100 µM (inactive). The GI50 was > 100 µM (inactive) in the experiment on SF-295; > 100 µM (inactive) in the experiment with SNB-75; > 100 µM (inactive) in the experiment on COLO 205; > 100 µM (inactive) with NCI-H23; > 100 µM (inactive) with M14; 45.9 µM (inactive) with LOX IMVI. Also, the GI50 with CAKI-1 and in the experiment with OVCAR-5 was > 100 µM (inactive) in each case.

`CCOC(=O)C1=C(Nc2ccc(Br)cc2)OCC1=O`: the GI50 with SW-620, in the experiment on SK-OV-3, with SR, in the experiment with Malme-3M, in the experiment on 786-0 and in the experiment on HT-29 was > 100 µM (inactive) each time. The GI50 with HOP-18, in the experiment on SF-295, in the experiment on SNB-75, in the experiment with COLO 205, with NCI-H23 and in the experiment on M14 was > 100 µM (inactive) in each case. Further, in the experiment with CAKI-1, the GI50 is > 100 µM (inactive).

Consider `O=C1CCCC/C(=C/c2ccccc2)N1`, for which the GI50 in the experiment with SW-620, with SK-OV-3, with SR, with Malme-3M, in the experiment on 786-0 and in the experiment with HT-29 was > 100 µM (inactive) each time. For the same compound, the GI50 is > 100 µM (inactive) in the experiment on HOP-18; > 100 µM (inactive) in the experiment with SF-295; 56.6 µM (inactive) with SNB-75; > 100 µM (inactive) in the experiment on COLO 205; > 100 µM (inactive) in the experiment on NCI-H23; > 100 µM (inactive) in the experiment on M14. For the same compound, the GI50 with LOX IMVI, in the experiment on CAKI-1 and in the experiment with OVCAR-5 was > 100 µM (inactive) each time.

Turning to `NC1=NN(c2ccccc2)C(=O)C1C(=O)C(=O)Nc1nccs1` (stereo not drawn), the GI50 with SW-620, in the experiment on SK-OV-3, with SR, in the experiment with Malme-3M, in the experiment on 786-0 and in the experiment on HT-29 was > 100 µM (inactive) throughout. Besides, the GI50 in the experiment on HOP-18 is > 100 µM (inactive); in the experiment on SF-295, > 100 µM (inactive); in the experiment on SNB-75 it was 62.1 µM (inactive); in the experiment with COLO 205, > 100 µM (inactive); with NCI-H23, > 100 µM (inactive); in the experiment with M14, > 100 µM (inactive). The GI50 with LOX IMVI, with CAKI-1 and in the experiment with OVCAR-5 was > 100 µM (inactive) each time.

Regarding `O=C(C(=O)N1CC2C=CC1CC2)c1c[nH]c2ccccc12` (stereo not drawn), the GI50 with SW-620, in the experiment on SK-OV-3, in the experiment with SR, with Malme-3M, in the experiment on 786-0 and in the experiment with HT-29 was > 100 µM (inactive) in each case. Besides, the GI50 was > 100 µM (inactive) in the experiment on HOP-18; > 100 µM (inactive) with SF-295; 82.4 µM (inactive) with SNB-75; > 100 µM (inactive) with COLO 205; > 100 µM (inactive) with M14; > 100 µM (inactive) in the experiment with LOX IMVI. The GI50 in the experiment on CAKI-1 and in the experiment on OVCAR-5 was > 100 µM (inactive) throughout.

In the case of `O=C1O/C(=C(\Br)c2cccc3ccccc23)c2ccccc21`, the GI50 in the experiment with SW-620 is 27 µM (inactive); in the experiment on SK-OV-3, > 39.8 µM (inactive); in the experiment on SR, 19.7 µM (inactive); in the experiment with Malme-3M, > 46.7 µM (inactive); in the experiment with 786-0, 17.4 µM (inactive); in the experiment on HT-29, 22.5 µM (inactive). The GI50 is 19.5 µM (inactive) in the experiment on HOP-18; > 38.1 µM (inactive) in the experiment with SF-295; > 50.4 µM (inactive) in the experiment with SNB-75; 28.3 µM (inactive) with COLO 205; > 40 µM (inactive) in the experiment on NCI-H23; > 44.2 µM (inactive) in the experiment with M14. The GI50 in the experiment with LOX IMVI was 73.6 µM (inactive); with OVCAR-5 it was > 40.2 µM (inactive).

Turning to `N/N=C1\C(=O)N(c2ccc(Cl)cc2Cl)C(=O)C(=O)C1c1nc2ccccc2o1` (stereo not drawn), the GI50 in the experiment on SW-620, in the experiment with SK-OV-3, with Malme-3M, in the experiment on 786-0, in the experiment with HT-29 and with HOP-18 was > 100 µM (inactive) each time. In addition, the GI50 was > 100 µM (inactive) with SF-295; > 100 µM (inactive) in the experiment with SNB-75; > 100 µM (inactive) with COLO 205; > 100 µM (inactive) in the experiment with NCI-H23; > 100 µM (inactive) with M14; 97.7 µM (inactive) in the experiment on LOX IMVI. In addition, the GI50 in the experiment with CAKI-1 and in the experiment on OVCAR-5 was > 100 µM (inactive) throughout.

For `COc1ccc([N+](=O)[O-])c2c(NCC(O)CO)ccnc12` (stereo not drawn), the GI50 in the experiment on SW-620 is 42.1 µM (inactive); in the experiment with SK-OV-3, > 100 µM (inactive); with SR, 34.4 µM (inactive); with Malme-3M, 20.3 µM (inactive); in the experiment with MDA-MB-231, 88.1 µM (inactive); with T47D, 36.4 µM (inactive). Besides, the GI50 in the experiment with 786-0 is 67.6 µM (inactive); in the experiment with HT-29, 31.7 µM (inactive); in the experiment with SF-295, 39.8 µM (inactive); with DU-145 it was 83.9 µM (inactive); in the experiment with MCF7, 29 µM (inactive); in the experiment on SNB-75 it was 47.8 µM (inactive). Also, the GI50 in the experiment with COLO 205 was 22.5 µM (inactive); in the experiment on NCI-H23 it was 18 µM (inactive); in the experiment with PC-3 it was 49.8 µM (inactive); in the experiment on M14, 52.7 µM (inactive); in the experiment with LOX IMVI, 36.1 µM (inactive); in the experiment on CAKI-1, 52.6 µM (inactive). Further, in the experiment on OVCAR-5, the GI50 was > 100 µM (inactive).

As for `CC(C)(C)C1CC[C@H]2c3c([nH]c4ccc(Br)cc34)[C@H]3C(=O)N(c4ccccc4)C(=O)[C@H]3[C@H]2C1` (stereo partly drawn), the GI50 is 17.4 µM (inactive) with SW-620; 21.7 µM (inactive) with SK-OV-3; 3.22 µM (inactive) in the experiment on SR; 31.6 µM (inactive) in the experiment on Malme-3M; 6.67 µM (inactive) with 786-0; 43 µM (inactive) in the experiment with HT-29. Also, the GI50 in the experiment on HOP-18 is 33 µM (inactive); in the experiment on SF-295, 14 µM (inactive); in the experiment on SNB-75, 18.5 µM (inactive); in the experiment with COLO 205, 7.74 µM (inactive); with NCI-H23 it was 27.9 µM (inactive); in the experiment with M14, 22 µM (inactive). Moreover, the GI50 with LOX IMVI is 19.1 µM (inactive); with CAKI-1 it was 53.7 µM (inactive); in the experiment with OVCAR-5, > 100 µM (inactive).

Take `CCOP(=O)(C/C(O)=C1\C(=O)C(CCCNC(=O)OC(C)(C)C)N(Cc2ccc(OC)c(OC)c2)C1=O)OCC` (stereo not drawn): the GI50 in the experiment on SW-620, in the experiment on SR, in the experiment with Malme-3M, with 786-0, in the experiment on HT-29 and with HOP-18 was > 100 µM (inactive) in each case. The GI50 in the experiment with SF-295, with SNB-75, in the experiment with COLO 205, in the experiment with NCI-H23, with M14 and in the experiment with LOX IMVI was > 100 µM (inactive) in each case. Further, in the experiment on OVCAR-5, the GI50 was > 100 µM (inactive).

Take `COC(C)(C)[C@H](O)C(O)CC(C)[C@@H]1CCC23CC12CCC1[C@@]2(C)CCC(OC(C)=O)C(C)(C)C2CC(OC2OC(COC(C)=O)C(O)C(O)C2O)[C@]13C` (stereo partly drawn): the GI50 in the experiment with SW-620 was 5.35 µM (inactive); in the experiment on SK-OV-3, 9.4 µM (inactive); with Malme-3M, 7.87 µM (inactive); with 786-0 it was 6.58 µM (inactive); in the experiment on HT-29, 1.22 µM (inactive); in the experiment with HOP-18, 11 µM (inactive). Besides, the GI50 in the experiment with SF-295 is 3.21 µM (inactive); in the experiment with SNB-75 it was 3.8 µM (inactive); in the experiment on COLO 205, 3.48 µM (inactive); in the experiment on NCI-H23, 7.18 µM (inactive); with M14, 2.77 µM (inactive); in the experiment with LOX IMVI, 2.79 µM (inactive). For the same compound, the values for the GI50 in the experiment with CAKI-1 and in the experiment with OVCAR-5 were 2.92 µM (inactive) and 2.34 µM (inactive), respectively.

On to `COc1cccc2c1cc([N+](=O)[O-])c1c(C(=O)O)cc3c(c12)OCO3` [ARISTOLOCHIC ACID], for which the GI50 is 32 µM (inactive) in the experiment on SW-620; 49.5 µM (inactive) with SK-OV-3; 21.7 µM (inactive) in the experiment on SR; 46.8 µM (inactive) in the experiment on Malme-3M; 39.1 µM (inactive) in the experiment with MDA-MB-231; 50.1 µM (inactive) in the experiment on T47D. Also, the GI50 with 786-0 is 37.2 µM (inactive); in the experiment on HT-29, 0.889 µM (active); in the experiment with SF-295, 32.4 µM (inactive); in the experiment with DU-145, 30.1 µM (inactive); with MCF7 it was 49.4 µM (inactive); in the experiment with SNB-75 it was 30.9 µM (inactive). In addition, the GI50 in the experiment with COLO 205 is 1.31 µM (inactive); in the experiment with NCI-H23, 39.4 µM (inactive); in the experiment on PC-3, 46.5 µM (inactive); in the experiment with M14, 43.9 µM (inactive); in the experiment on LOX IMVI it was 35.5 µM (inactive); in the experiment on CAKI-1, 27.2 µM (inactive). Besides, in the experiment with OVCAR-5, the GI50 is 25.4 µM (inactive).

Turning to `Clc1ccc(COC(Cn2ccnc2)c2ccc(Cl)cc2Cl)cc1` (stereo not drawn) [ECONAZOLE], the GI50 is 12.1 µM (inactive) in the experiment with SW-620; 13.8 µM (inactive) in the experiment on SK-OV-3; 5.32 µM (inactive) in the experiment with SR; 12.3 µM (inactive) with Malme-3M; 13.3 µM (inactive) in the experiment on MDA-MB-231; 6.9 µM (inactive) in the experiment with T47D. Moreover, the GI50 is 13.1 µM (inactive) in the experiment with 786-0; 8.69 µM (inactive) in the experiment with HT-29; 10.8 µM (inactive) in the experiment with SF-295; 16.5 µM (inactive) in the experiment on DU-145; 12.4 µM (inactive) with MCF7; 13.7 µM (inactive) in the experiment on SNB-75. The GI50 is 11.5 µM (inactive) in the experiment on COLO 205; 13.1 µM (inactive) in the experiment with NCI-H23; 10.8 µM (inactive) in the experiment on PC-3; 15 µM (inactive) in the experiment on M14; 6.98 µM (inactive) in the experiment with LOX IMVI; 11.6 µM (inactive) in the experiment on CAKI-1. Further, in the experiment on OVCAR-5, the GI50 was 11.5 µM (inactive).

For the origin of these results see ChEMBL document CHEMBL1201862, “PubChem BioAssay data set” (2004).
